Each block holds one molecule with its values, some of them ahead of it.
Columns and labels:
[1] = tested on: postoperative bleeding; settings: in vivo; cited from earlier work
[2] = tested on: intrinsic pathway of coagulation; settings: in vitro; cited from earlier work
[3] = tested on: blood; settings: contacting blood with the substance; cited from earlier work
[4] = tested on: LPS-induced disseminated intravascular coagulation; settings: cited from earlier work
[5] = biological target: T1, Human FXIa (Homo sapiens, UniProt P03951); experiment: Determination of the % inhibition / IC50 for FXIa; type: biochemical; settings: 25° C., substrate Z-Gly-Pro-Arg-AFC
T1 construct: purchased Enzyme Research Laboratories
Procedure: Residual enzyme activity (initial rate of reaction) was determined by measuring the change in optical absorbance at 410 nm and the IC50 value for the test compound was determined.

[6] = biological target: T2, Human Factor XIIa (Homo sapiens, UniProt P00748); experiment: Determination of the IC50 for FXIIa; type: biochemical; settings: 25° C., substrate H-DPro-Phe-Arg-AFC
T2 construct: purchased Enzyme Research Laboratories
Procedure: Factor XIIa inhibitory activity in vitro was determined using standard published methods (see e.g. Shori et al., Biochem. Pharmacol., 1992, 43, 1209; Baeriswyl et al., ACS Chem. Biol., 2015, 10 (8) 1861; Bouckaert et al., European Journal of Medicinal Chemistry 110 (2016) 181). Human Factor XIIa (Enzyme Research Laboratories) was incubated at 25° C. with the fluorogenic substrate H-DPro-Phe-Arg-AFC and various concentrations of the test compound. Residual enzyme activity (initial rate of reaction) was determined by measuring the […] and the IC50 value for the test compound was determined.

[7] = biological target: T3, Human KLK1 (Homo sapiens, UniProt P06870); experiment: Determination of the IC50 for KLK1; type: biochemical; settings: 25° C., substrate H-DVal-Leu-Arg-AFC
T3 construct: purchased Callbiochem
Procedure: KLK1 inhibitory activity in vitro was determined using standard published methods (see e.g. Johansen et al., Int. J. Tiss. Reac. 1986, 8, 185; Shori et al., Biochem. Pharmacol., 1992, 43, 1209; Stürzebecher et al., Biol. Chem. Hoppe-Seyler, 1992, 373, 1025). Human KLK1 (Callbiochem) was incubated at 25° C. with the fluorogenic substrate H-DVal-Leu-Arg-AFC and various concentrations of the test compound. Residual enzyme activity (initial rate of reaction) was determined by measuring the change in optical absorbance at 410 nm and the IC50 value for the test compound was determined.

[8] = Pharmacokinetics after a single oral dose in rats; type: in vivo; settings: male, Sprague-Dawley, rat, 10% DMSO/10% cremophor/80% SWFI, plasma
Procedure: Pharmacokinetic studies of the compounds in Table 4 were performed to assess the pharmacokinetics following a single oral dose in male Sprague-Dawley rats. […] Following dosing, blood samples were collected over a period of […]. Sample times were 5, 15 and 30 minutes then 1, 2, 4, 6, 8 and 12 hours. Following collection, blood samples were centrifuged and the plasma fraction analysed for concentration of test compound by LCMS.

[9] = tested on: rats; settings: systemic administration; cited from earlier work
[10] = biological target: trypsin; experiment: Enzyme selectivity, trypsin; type: biochemical, human; settings: substrate at Km concentration
Procedure: Human serine protease enzymes plasmin, thrombin and trypsin were assayed for enzymatic activity using an appropriate fluorogenic substrate. Protease activity was measured by monitoring the accumulation of liberated fluorescence from the substrate over 5 minutes. The linear rate of fluorescence increase per minute was expressed as percentage (%) activity. The Km for the cleavage of each substrate was determined by standard transformation of the Michaelis-Menten equation.

[11] = In vitro permeability, Caco-2 model for oral absorption; type: in vitro ADME; settings: human, Caco-2; 50 μM, apical to basolateral, 1 hour at 37° C.
Procedure: (§1) In vitro permeability was determined using the Caco-2 model for oral absorption. The methodology was adapted from standard published methods (Wang Z, Hop C. E., Leung K. H. and Pang J. (2000) J Mass Spectrom 35(1); 71-76). […] For the assay, 50 μM test compound is added to the apical side of the inserts and incubated for 1 hour at 37° C. on a shaking platform (120 rpm). Apical to basolateral transport was determined by measuring the test article in both compartments by LCMS following the 1 hour incubation. The integrity of the Caco-2 monolayers was confirmed by two methods, (i) comparison of pre- and post-experiment transepithelial electrical resistance (TEER) and, (ii) assessment of Lucifer Yellow flux.

[12] = tested on: Caco-2 monolayers; experiment: as above; type: in vitro ADME
Procedure: as §1

T2 sequence (P00748 373-615 limits assumed, other chains not shown): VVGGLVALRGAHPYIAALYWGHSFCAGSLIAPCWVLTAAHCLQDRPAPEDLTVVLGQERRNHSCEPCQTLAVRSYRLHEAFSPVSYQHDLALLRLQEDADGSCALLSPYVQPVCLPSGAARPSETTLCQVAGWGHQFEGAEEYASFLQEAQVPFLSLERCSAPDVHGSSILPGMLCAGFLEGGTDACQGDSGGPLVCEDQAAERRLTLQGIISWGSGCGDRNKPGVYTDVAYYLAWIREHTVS
T3 sequence (P06870 25-262): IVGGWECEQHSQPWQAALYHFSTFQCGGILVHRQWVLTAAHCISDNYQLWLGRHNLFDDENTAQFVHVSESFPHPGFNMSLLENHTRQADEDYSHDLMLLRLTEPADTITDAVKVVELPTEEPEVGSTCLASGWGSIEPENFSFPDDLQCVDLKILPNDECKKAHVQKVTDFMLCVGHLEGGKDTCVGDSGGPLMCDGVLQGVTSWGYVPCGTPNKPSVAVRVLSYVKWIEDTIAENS
T1 sequence (P03951 388-625 limits assumed): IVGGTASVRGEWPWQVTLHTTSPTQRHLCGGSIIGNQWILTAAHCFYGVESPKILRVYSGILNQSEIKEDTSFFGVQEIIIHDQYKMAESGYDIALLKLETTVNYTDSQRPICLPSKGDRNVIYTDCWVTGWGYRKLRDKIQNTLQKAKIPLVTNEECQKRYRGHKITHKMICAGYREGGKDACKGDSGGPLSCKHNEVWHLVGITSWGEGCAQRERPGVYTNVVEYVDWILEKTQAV
T1 sequence (P03951 19-387 partner limits assumed): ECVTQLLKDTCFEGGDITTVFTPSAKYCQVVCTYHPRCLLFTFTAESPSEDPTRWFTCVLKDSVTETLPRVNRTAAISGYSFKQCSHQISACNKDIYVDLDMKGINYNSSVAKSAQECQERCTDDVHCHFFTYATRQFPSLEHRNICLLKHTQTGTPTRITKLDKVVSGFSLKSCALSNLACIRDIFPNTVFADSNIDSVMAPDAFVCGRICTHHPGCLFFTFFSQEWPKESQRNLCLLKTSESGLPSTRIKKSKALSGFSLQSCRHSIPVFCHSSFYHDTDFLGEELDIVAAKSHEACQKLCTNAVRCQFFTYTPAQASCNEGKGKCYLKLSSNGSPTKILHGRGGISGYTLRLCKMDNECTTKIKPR

Molecule: aprotinin
postoperative bleeding [1]: decrease

Molecule: Ecallantide
contact activated induced coagulation [2]: delay
activated clotting time (ACT) [3]: increase

Molecule: Cl.NCC1CCC(C(=O)N[C@@H](Cc2ccccc2)C(=O)Nc2ccc(CC(=O)O)cc2)CC1 (stereo partly drawn) [PKSI-527]
decrease in platelet count and fibrinogen level, increase in FDP level [4]: significantly suppressed

IC50 [5]: > 40 µM
IC50 [6]: > 40 µM
IC50 [7]: > 40 µM
Cmax ([8]; po 10.5 mg/kg): 1530 ng/mL
Tmax ([8]; po 10.5 mg/kg): 3 h
Molecule: COCc1nn(Cc2ccc(Cn3ccccc3=O)cc2)cc1C(=O)NCc1nccc(OC)c1F [Example 41 of WO2016/083820, N-[(3-fluoro-4-methoxypyridin-2-yl)methyl]-3-(methoxymethyl)-1-({4-[(2-oxopyridin-1-yl)methyl]phenyl}methyl)pyrazole-4-carboxamide]

Molecule: N=C(N)c1ccc(CNC(=O)c2cnn(Cc3ccccc3)c2)cc1 [ASP-440]
hematoma expansion [9]: reduced

Molecule: COc1ccnc(CNC(=O)c2cn(Cc3ccc(Cn4ccccc4=O)cc3)nc2C(F)(F)F)c1F [Compound of Formula A, N-[(3-fluoro-4-methoxypyridin-2-yl)methyl]-1-({4-[(2-oxopyridin-1-yl)methyl]phenyl}methyl)-3-(trifluoromethyl)pyrazole-4-carboxamide]
Cmax ([8]; po 2.2 mg/kg): 1800 ng/mL
Tmax ([8]; po 2.2 mg/kg): 0.5 h
IC50 [10]: > 40 µM
Papp A→B at 1 h, 50 μM [11]: 17 ×10⁻⁶ cm/s
pharmacokinetic properties, in particular in vitro permeability (in words) [12]: surprisingly good

Reference: patent publication US20200325116A1, “SOLID FORMS OF A PLASMA KALLIKREIN INHIBITOR AND SALTS THEREOF” (KALVISTA PHARMACEUTICALS LIMITED, priority 2017, published 2020)
